# Molecular target: T1, Human KLK1 (Homo sapiens, UniProt P06870)
# T1 construct: purchased Callbiochem (Calbiochem)
# Experiment: Determination of the IC50 for KLK1 (fluorogenic substrate H-DVal-Leu-Arg-AFC)
# Format: biochemical
# Conditions: 37° C.
# Outline: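 IC50 values reflect residual human KLK1 activity, read as initial rate from optical absorbance change at 410 nm. Incubations ran at 37° C with H-DVal-Leu-Arg-AFC as substrate across a compound concentration series.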
# T1 sequence (P06870 25-262): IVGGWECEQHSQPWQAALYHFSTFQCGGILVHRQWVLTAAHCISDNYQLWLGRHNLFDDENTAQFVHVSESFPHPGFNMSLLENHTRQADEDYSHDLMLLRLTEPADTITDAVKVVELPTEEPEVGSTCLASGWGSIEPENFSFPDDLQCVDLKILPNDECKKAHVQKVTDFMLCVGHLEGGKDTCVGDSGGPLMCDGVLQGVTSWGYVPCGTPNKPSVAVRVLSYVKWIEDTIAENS
row,Structure (SMILES),IC50 [nM]
1,"Cc1nc(N)ccc1CNC(=O)[C@H](Cc1cccc2ccccc12)NC(=O)c1cc2ccccc2[nH]1 [Example 303, 1H-Indole-2-carboxylic acid {(S)-1-[(6-amino-2-methyl-pyridin-3-ylmethyl)-carbamoyl]-2-naphthalen-1-yl-ethyl}-amide]",240
2,"Nc1ccc(CNC(=O)[C@H](Cc2cccc3ccccc23)NC(=O)c2ncc[nH]2)cn1 [Example 289, 1H-Imidazole-2-carboxylic acid {(S)-1-[(6-amino-pyridin-3-ylmethyl)-carbamoyl]-2-naphthalen-1-yl-ethyl}-amide]",30.5
3,"CCC(C)[C@@H](N)C(=O)N[C@@H](Cc1cc(F)cc(F)c1)C(=O)NCc1ccc(N)nc1 (stereo partly drawn) [Example 39, (R)-2-Amino-3-methyl-pentanoic acid [(S)-1-[(6-amino-pyridin-3-ylmethyl)-carbamoyl]-2-(3,5-difluoro-phenyl)-ethyl]-amide]",5.8
4,"CCN(C)[C@@H](C)C(=O)N[C@@H](CC1CCCCC1)C(=O)NCc1ccc(N)nc1 [Example 384, (S)—N-{(S)-1-[(6-Amino-pyridin-3-ylmethyl)-carbamoyl]-2-cyclohexyl-ethyl}-2-(ethyl-methyl-amino)-propionamide]",9.7
5,"CCN(CC)CC(=O)N[C@@H](Cc1ccc(F)c(F)c1)C(=O)NCc1ccc(N)nc1 [Example 10, (S)—N-(6-Amino-pyridin-3-ylmethyl)-2-(2-diethylamino-acetylamino)-3-(3,4-difluoro-phenyl)-propionamide]",13.7
6,"C[C@@H](C(=O)N[C@@H](Cc1ccc(Cl)c(Cl)c1)C(=O)NCc1ccc(N)nc1)N1CCCCC1 [Example 403, (S)—N-[(S)-1-[(6-Amino-pyridin-3-ylmethyl)-carbamoyl]-2-(3,4-dichloro-phenyl)-ethyl]-2-piperidin-1-yl-propionamide]",1.1
7,"CN1CCC[C@@H]1C(=O)N[C@@H](Cc1ccccc1F)C(=O)NCc1ccc(N)nc1 [Example 108, (R)-1-Methyl-pyrrolidine-2-carboxylic acid [(S)-1-[(6-amino-pyridin-3-ylmethyl)-carbamoyl]-2-(2-fluoro-phenyl)-ethyl]-amide]",34
8,"Cc1nc(N)ccc1CNC(=O)[C@@H](Cc1ccc(Cl)c(Cl)c1)NC(=O)[C@@H](N)c1ccccc1 [Example 197, (R)—N-(6-Amino-2-methyl-pyridin-3-ylmethyl)-2-((S)-2-amino-2-phenyl-acetylamino)-3-(3,4-dichloro-phenyl)-propionamide]",84.6
9,"CC(C)N[C@H](Cc1ccccc1)C(=O)N[C@@H](Cc1ccc(F)c(F)c1)C(=O)NCc1ccc(N)nc1 [Example 184, (R)—N-[(S)-1-[(6-Amino-pyridin-3-ylmethyl)-carbamoyl]-2-(3,4-difluoro-phenyl)-ethyl]-2-isopropylamino-3-phenyl-propionamide]",44.4
10,"CCC(C)[C@@H](N)C(=O)N[C@@H](Cc1ccc(F)c(F)c1)C(=O)NCc1ccc(N)nc1 (stereo partly drawn) [Example 32, (R)-2-Amino-3-methyl-pentanoic acid [(S)-1-[(6-amino-pyridin-3-ylmethyl)-carbamoyl]-2-(3,4-difluoro-phenyl)-ethyl]-amide]",2.8
11,"COc1ccc(C[C@H](NC(=O)c2[nH]c(C)cc2C)C(=O)NCc2ccc(N)nc2)cc1 [Example 254, 3,5-Dimethyl-1H-pyrrole-2-carboxylic acid [(S)-1-[(6-amino-pyridin-3-ylmethyl)-carbamoyl]-2-(4-methoxy-phenyl)-ethyl]-amide]",37.2
12,"CNCC(=O)N[C@@H](CC1CCCC2CCCCC21)C(=O)NCc1ccc(N)nc1 (stereo partly drawn) [Example 19, (S)—N-(6-Amino-pyridin-3-ylmethyl)-3-(decahydro-naphthalen-1-yl)-2-(2-methylamino-acetylamino)-propionamide]",21.6
13,"Nc1ccc(CNC(=O)[C@H](Cc2ccc(F)cc2)NC(=O)[C@H]2CCCCN2)cn1 [Example 73, (R)-Piperidine-2-carboxylic acid [(S)-1-[(6-amino-pyridin-3-ylmethyl)-carbamoyl]-2-(4-fluoro-phenyl)-ethyl]-amide]",1.1
14,"CC(C)N1CCC[C@@H]1C(=O)N[C@@H](Cc1c[nH]c2ccccc12)C(=O)NCc1ccc(N)nc1 [Example 130, (R)-1-Isopropyl-pyrrolidine-2-carboxylic acid [(S)-1-[(6-amino-pyridin-3-ylmethyl)-carbamoyl]-2-(1H-indol-3-yl)-ethyl]-amide]",5
15,"CN1CCCC[C@@H]1C(=O)N[C@@H](Cc1ccc(F)c(F)c1)C(=O)NCc1ccc(N)nc1 [Example 144, (R)-1-Methyl-piperidine-2-carboxylic acid [(S)-1-[(6-amino-pyridin-3-ylmethyl)-carbamoyl]-2-(3,4-difluoro-phenyl)-ethyl]-amide]",20.9
16,"CCCN(C)[C@@H](C)C(=O)N[C@@H](Cc1ccc(F)cc1)C(=O)NCc1ccc(N)nc1 [Example 368, (S)—N-[(S)-1-[(6-Amino-pyridin-3-ylmethyl)-carbamoyl]-2-(4-fluoro-phenyl)-ethyl]-2-(methyl-propyl-amino)-propionamide]",19.4
17,"CN1CCC[C@@H]1C(=O)N[C@@H](Cc1cc(F)c(F)cc1F)C(=O)NCc1ccc(N)nc1 [Example 94, (R)-1-Methyl-pyrrolidine-2-carboxylic acid [(S)-1-[(6-amino-pyridin-3-ylmethyl)-carbamoyl]-2-(2,4,5-trifluoro-phenyl)-ethyl]-amide]",12.5
18,"Cc1[nH]c(C(=O)N[C@@H](Cc2cccc(C(F)(F)F)c2)C(=O)NCc2ccc(N)nc2)c(C)c1C [Example 230, 3,4,5-Trimethyl-1H-pyrrole-2-carboxylic acid [(S)-1-[(6-amino-pyridin-3-ylmethyl)-carbamoyl]-2-(3-trifluoromethyl-phenyl)-ethyl]-amide]",20.3
19,"CC(C)N1CCC[C@@H]1C(=O)N[C@@H](Cc1cccc(Cl)c1)C(=O)NCc1ccc(N)nc1 [Example 120, (R)-1-Isopropyl-pyrrolidine-2-carboxylic acid [(S)-1-[(6-amino-pyridin-3-ylmethyl)-carbamoyl]-2-(3-chloro-phenyl)-ethyl]-amide]",1.6
20,"Cc1nc(N)ccc1CNC(=O)[C@H](Cc1cccc(C(F)(F)F)c1)NC(=O)c1cc2ccccc2[nH]1 [Example 309, 1H-Indole-2-carboxylic acid [(S)-1-[(6-amino-2-methyl-pyridin-3-ylmethyl)-carbamoyl]-2-(3-trifluoromethyl-phenyl)-ethyl]-amide]",42.3
21,"Cc1cccc(C[C@H](NC(=O)[C@H]2CCCN2C)C(=O)NCc2ccc(N)nc2)c1 [Example 105, (R)-1-Methyl-pyrrolidine-2-carboxylic acid {(S)-1-[(6-amino-pyridin-3-ylmethyl)-carbamoyl]-2-m-tolyl-ethyl}-amide]",3.8
22,"CN(C)[C@@H](C(=O)N[C@@H](Cc1ccc(F)c(F)c1)C(=O)NCc1ccc(N)nc1)C(C)(C)C [Example 179, (R)—N-[(S)-1-[(6-Amino-pyridin-3-ylmethyl)-carbamoyl]-2-(3,4-difluoro-phenyl)-ethyl]-2-dimethylamino-3,3-dimethyl-butyramide]",3.01
23,"Nc1ccc(CNC(=O)[C@H](Cc2cccc(C(F)(F)F)c2)NC(=O)c2ccc(C(=O)O)[nH]2)cn1 [Example 275, 5-[(S)-1-[(6-Amino-pyridin-3-ylmethyl)-carbamoyl]-2-(3-trifluoromethyl-phenyl)-ethylcarbamoyl]-1H-pyrrole-2-carboxylic acid]",147

# Source: patent US20100076015A1, “Aminopyridine Derivatives” (VANTIA LIMITED, priority 2008, published 2010)
